Earlier results as cited in patent US20070212307A1, “Pharmaceutical Compositions Comprising an Opioid Receptor Antagonist and Methods of Using Same” (priority 2006, published 2007).

Details: 50 mg oral dose

O=C1CC[C@@]2(O)[C@H]3Cc4ccc(O)c5c4[C@@]2(CCN3CC2CC2)[C@H]1O5 [naltrexone]
oral bioavailability: 10%-25%
